Experimental data published in patent publication US20100022568A1, “ENDOTHELIN RECEPTOR ANTAGONISTS FOR EARLY STAGE IDIOPATHIC PULMONARY FIBROSIS” (Actelion Pharmaceeuticals Ltd., priority 2006, published 2010).
“Also recorded” adds a separate entry of the source. Where two headings read alike, the source gives them in different places. Square brackets hold non-standard residues; d marks the D form. Peptide text beside a SMILES is read from it.

Experiments:
[1] = system: Swiss 3T3 mouse embryonic fibroblasts; assay: cells
Description: Experiments were performed on the mouse embryonic fibroblast cell line Swiss 3T3 (Deutsche Sammlung fur Mikroorganismen und Zellen, DSMZ ACC 173). Cells were starved for 24 h in serum-free medium or medium containing 0.5% serum followed by a 24 h incubation with endothelin-1 at a concentration giving approximately 50% or preferably 80% of its maximal efficacy, in presence either of vehicle or of an antagonist at increasing concentrations or an antagonist in combination with Pirfenidone.
Potential cytotoxic effects are excluded by assessing fibroblast proliferation using the MTS reagent (21). Collagen neo-synthesis by fibroblasts is assessed by measuring ^3H-proline incorporation (22).
Using a concentration of ET-1 of 1 nM (EC80), the below mentioned endothelin receptor antagonists were analyzed for antagonistic activity on ET-1-induced collagen neo-synthesis.

rat mesangial cells = details: cited from earlier work
[2] = system: norepinephrine-induced aortic remodeling and fibrosis; details: cited from earlier work
patients with IPF = assay: BUILD-1 clinical study (phase II/III, placebo-controlled) in IPF patients; type: in vivo, human
Source text: BUILD 1 study was a multicentric, randomized, double-blind, placebo-controlled, phase II/III study in IPF patients. […] Treatment failure was defined either as worsening of PFTs or the occurrence of an acute decompensation of IPF. PFT worsening was defined as 2 out of the following 3 criteria • Decrease from baseline ≧10% in Forced vital capacity (FVC) • Decrease from baseline ≧15% in diffusion capacity for carbon monoxide (DLCO). • Decrease from baseline ≧4% in O2 saturation (blood gas) at rest or increase from baseline ≧8 mmHg in alveolar capillary O2 gradient (A-a PO2).
Main inclusion criteria: proven IPF diagnosis <3 years duration, either via a surgical lung biopsy or when not done according to the ATS/ERS consensus criteria (see above). The main inclusion criteria were the presence of FVC ≧50% of predicted value and DLCO ≧30% of predicted value.
The planned treatment period 1 was 12 months. Patients were evaluated at regular interval up to End-of-Period 1 (Month 12 months) and up to the End-of-Study i.e. when the last patient has his/her last visit. The 6MWT and pulmonary function tests were evaluated at each visit.
The analyses were run by a single radiologist who was blinded to the group allocation. Each patient CT was scored for honeycomb as well as ground-glass from the 3 zones of each lung namely upper mid and lower zone. Increment for HC and ground-glass was rounded to the upper 5%.

cell cultures = details: cited from earlier work
[3] = system: various animal models of fibrosis; details: cited from earlier work
human fibroblasts = details: cited from earlier work
diabetic rat kidney = details: cited from earlier work
[4] = Mus musculus, Swiss-3T3, read-out: IC50 on ET-1-induced collagen neo-synthesis in 3T3 fibroblasts
[5] = patients with surgical lung biopsy, N = 49

## CC(=O)c1cc(C)cc(C)c1NC(=O)c1sccc1S(=O)(=O)Nc1onc(C)c1C [TBC3711]
[1]; read-out: IC50 on ET-1-induced collagen neo-synthesis in 3T3 fibroblasts, ET-1 1 nM (EC80), n >= 2
  IC50: 0.059 µM

## COc1ccccc1Oc1c(NS(=O)(=O)c2ccc(C)cn2)nc(-c2ccncc2)nc1OC [Avosentan]
[1]; [4]
  IC50: 0.33 µM

## CC(C)C[C@@H]1NC(=O)[C@@H](C(C)C)NC(=O)[C@@H]2CCCN2C(=O)[C@@H](CC(=O)O)NC(=O)[C@@H](Cc2c[nH]c3ccccc23)NC1=O [BQ-123] (cyclo(L[dW][dD]P[dV]))
Rat mesangial cells
  Fibronectin synthesis induced by ET-1 or angiotensin II: decreased

## Cc1ccc(=O)n(-c2ccccc2)c1 [pirfenidone]
[1]; Mus musculus, Swiss-3T3, 24 h, read-out: Inhibitory effect on collagen neo-synthesis
  inhibition at 1000 µM: 55%

## CC[C@H](C)[C@H](NC(=O)[C@H](CC(=O)O)NC(=O)[C@H](CC(C)C)NC(=O)[C@H](Cc1c[nH]cn1)NC(=O)[C@@H]1CSSC[C@H](N)C(=O)N[C@@H](CO)C(=O)N[C@H]2CSSC[C@H](NC(=O)[C@H](CCC(=O)O)NC(=O)[C@H](CCCCN)NC(=O)[C@H](CC(=O)O)NC(=O)[C@H](CCSC)NC(=O)[C@H](CC(C)C)NC(=O)[C@H](CO)NC(=O)[C@H](CO)NC2=O)C(=O)N[C@@H](C(C)C)C(=O)N[C@@H](Cc2ccc(O)cc2)C(=O)N[C@@H](Cc2ccccc2)C(=O)N1)C(=O)N[C@H](C(=O)N[C@@H](Cc1c[nH]c2ccccc12)C(=O)O)[C@@H](C)CC [ET-1, endothelin-1]
[1]; read-out: EC50 (concentration of ET-1 giving 50% of maximal effect) on collagen neo-synthesis, Swiss 3T3 fibroblasts, 24 h incubation
  EC50: 0.00024 µM

## COc1cc(OC)nc(O[C@H](C(=O)O)C(OC)(c2ccccc2)c2ccccc2)n1 [Darusentan]
[1]; [4]
  IC50: 0.221 µM
[2]
  Accumulation of collagen: decreased

## Cc1cc2c(cc1CC(=O)c1sccc1S(=O)(=O)Nc1onc(C)c1Cl)OCO2 [Sitaxsentan]
[1]; [4]
  IC50: 0.369 µM

## COc1ccccc1Oc1c(NS(=O)(=O)c2ccc(C(C)(C)C)cc2)nc(-c2ncccn2)nc1OCCO [Bosentan]
[1]; [4]
  IC50: 0.214 µM
[1]; bosentan 1 μM alone, 24 h
  Effect on ET-1-induced collagen synthesis: reverses ET-1 -induced collagen synthesis to baseline
Patients with IPF; BUILD-1, IPF patients
  Secondary endpoints related to death or disease worsening: showed efficacy
Patients with IPF; all treated (n=71 bosentan), placebo 36.1%
  PFT score: occurrence of death or treatment failure at End-of-Period 1: 22.5%
Patients with IPF; all treated, bosentan target 125 mg b.i.d., 12 months
  Primary endpoint: exercise capacity (6MWT) at End-of-Period 1: did not show an effect; also recorded: did not show improvement
Patients with IPF; [5]
  PFTs scores at end of period 1: Improved (number of patients): 2
  PFTs scores at end of period 1: Worsened (number of patients): 6
Patients with IPF; patients with surgical lung biopsy, N = 49, 95% CL 0.5%, 14.0%, p 0.2424
  PFTs scores at end of period 1: Improved (percent of patients): 4.1%
Patients with IPF; patients with surgical lung biopsy, N = 49, 95% CL 4.6%, 24.8%
  PFTs scores at end of period 1: Worsened (percent of patients): 12.2%
Patients with IPF; post hoc analysis of BUILD 1 HRCT scans
  Prevention of clinical worsening in IPF patients with early disease with low or no honeycomb on HRCT lung scans: mainly effective
Cell cultures
  Collagen synthesis: decreases
  Collagenase expression: increases
  Extracellular matrix deposition: inhibits
  NF-κB expression: reduces
[3]
  Anti-fibrotic activity in vivo: potent anti-fibrotic agent
Human fibroblasts; cell cultures
  Ability to contract a collagen matrix: reduced
  Matrix metalloprotease-1 (collagenase) production: increased
Human fibroblasts; human fibroblasts
  Fibroblast proliferation induced by ET-1: attenuated

## CC(C)C[C@H](NC(=O)N1CCCCCC1)C(=O)N[C@H](Cc1cn(C)c2ccccc12)C(=O)N[C@H](Cc1ccccn1)C(=O)O [FR1 39317]
Diabetic rat kidney
  Expression of collagen, laminin and TGF-β mRNA: attenuated

## COC(c1ccccc1)(c1ccccc1)[C@H](Oc1nc(C)cc(C)n1)C(=O)O [Ambrisentan]
[1]; [4]
  IC50: 0.079 µM

## CCCNS(=O)(=O)Nc1ncnc(OCCOc2ncc(Br)cn2)c1-c1ccc(Br)cc1 [Compound 1, propyl-sulfamic acid {5-(4-bromo-phenyl)-6-[2-(5-bromo-pyrimidin-2-yloxy)-ethoxy]-pyrimidine-4-yl}-amide]
[1]; [4]
  IC50: 0.114 µM
